From ChEMBL document CHEMBL1201862, “PubChem BioAssay data set” (2004)
Activity calls are given as the source filed them.

Key:
[1] = biological target: T1, Orexin/Hypocretin receptor type 1 (Homo sapiens, UniProt O43613); test: (§1) Fluorescence-based cell-based high throughput dose response assay for antagonists of the orexin 1 receptor (OX1R; HCRTR1). [Related pubchem assays (depositor defined):AID434989, AID435008, AID463079, AID485270, AID492963, AID492964, AID492965, AID493232, AID504717, AID504718]; assay type: functional
T1 sequence (O43613 whole entry): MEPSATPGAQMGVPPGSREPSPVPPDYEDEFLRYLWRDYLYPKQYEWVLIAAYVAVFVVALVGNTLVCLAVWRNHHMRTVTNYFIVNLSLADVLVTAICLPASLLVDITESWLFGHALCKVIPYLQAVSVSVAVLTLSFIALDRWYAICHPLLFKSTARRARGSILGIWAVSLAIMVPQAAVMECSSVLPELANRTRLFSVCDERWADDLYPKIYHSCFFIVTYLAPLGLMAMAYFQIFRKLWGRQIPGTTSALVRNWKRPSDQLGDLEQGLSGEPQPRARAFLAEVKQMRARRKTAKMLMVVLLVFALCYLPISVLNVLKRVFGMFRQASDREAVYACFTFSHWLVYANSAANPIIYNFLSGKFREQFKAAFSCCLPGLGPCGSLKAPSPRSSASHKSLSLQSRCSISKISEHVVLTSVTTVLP

[2] = biological target: T2, Orexin receptor type 2 (Homo sapiens, UniProt O43614); test: Counterscreen assay for antagonists of the orexin 1 receptor (OX1R; HCRTR1): Homogeneous Time Resolved Fluorescence (HTRF)-based cell-based dose response assay for antagonists of the orexin 2 receptor (OX2R; HCRTR2), run by assay provider.; assay type: functional
T2 sequence (O43614 whole entry): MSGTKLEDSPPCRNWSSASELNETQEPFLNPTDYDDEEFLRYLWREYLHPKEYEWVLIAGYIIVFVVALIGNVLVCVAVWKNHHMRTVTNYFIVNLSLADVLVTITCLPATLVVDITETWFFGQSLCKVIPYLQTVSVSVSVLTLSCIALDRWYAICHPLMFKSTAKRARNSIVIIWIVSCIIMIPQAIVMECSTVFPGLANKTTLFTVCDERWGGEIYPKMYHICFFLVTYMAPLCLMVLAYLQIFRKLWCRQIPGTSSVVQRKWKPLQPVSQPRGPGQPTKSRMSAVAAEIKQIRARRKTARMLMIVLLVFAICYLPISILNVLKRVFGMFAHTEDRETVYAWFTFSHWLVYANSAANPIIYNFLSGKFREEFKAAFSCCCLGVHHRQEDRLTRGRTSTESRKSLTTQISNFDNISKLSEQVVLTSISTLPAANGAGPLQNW

[3] = biological target: T1, Orexin/Hypocretin receptor type 1; test: as §1, with “Homogeneous Time Resolved Fluorescence (HTRF)-based” for “Fluorescence-based”; assay type: functional
[4] = system: CHO-K1; test: (§2) Counterscreen for antagonists of the orexin 1 receptor (OX1R; HCRTR1): Homogeneous time resolved fluorescence (HTRF)-based cell-based dose response assay to identify antagonists of the parental CHO-K1 cell line. [Related pubchem assays (depositor defined):AID434989, AID435008, AID463079, AID485270, AID492963, AID492964, AID492965, AID493232, AID504699, AID504701]; assay type: functional; conditions: Cricetulus griseus
[5] = biological target: T2, Orexin receptor type 2; test: Counterscreen assay for antagonists of the orexin 1 receptor (OX1R; HCRTR1): Fluorescence-based cell-based dose response assay for antagonists of the orexin 2 receptor (OX2R; HCRTR2), run by assay provider.; assay type: functional
[6] = as §2, with “Fluorescence-based” for “Homogeneous time resolved fluorescence (HTRF)-based”, “cell-based high throughput” for “cell-based”, “CHO” for “CHO-K1”; assay type: functional
[7] = system: Candida albicans; test: Candida growth effect without fluconazole – C. albicans CaCi-2, dry powder, counter-screen for antifungal drug resistance project, dose response (AID 488802); assay type: functional, organism-based
[8] = system: NIH3T3; test: mammalian cell viability counter-check – Alamar Blue, fluconazole, dry powder, cytotoxicity control for antifungal drug resistance project, dose response (AID 488809); assay type: functional, cell-based; conditions: Mus musculus
[9] = biological target: T3, Caspase-3 (Homo sapiens, UniProt P42574); test: inhibition of recombinant caspase-3 activity – biochemical, luminescence, set 2, selectivity assay for SENP protease inhibitor project, SAR follow-up (AID 588599); assay type: functional
T3 sequence (P42574 whole entry): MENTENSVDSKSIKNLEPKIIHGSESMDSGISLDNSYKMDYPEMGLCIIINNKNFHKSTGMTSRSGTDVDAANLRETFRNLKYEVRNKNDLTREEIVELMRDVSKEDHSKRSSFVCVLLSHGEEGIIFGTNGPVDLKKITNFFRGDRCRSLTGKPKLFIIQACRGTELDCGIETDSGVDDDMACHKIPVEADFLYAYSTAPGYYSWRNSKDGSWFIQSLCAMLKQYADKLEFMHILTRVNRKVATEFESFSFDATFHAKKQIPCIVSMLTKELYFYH

[10] = biological target: T4, Sentrin-specific protease 8 (Homo sapiens, UniProt Q96LD8); test: inhibition of sentrin protease 8 – biochemical, luminescence, set 2, SAR follow-up (AID 588601); assay type: functional
T4 sequence (Q96LD8 whole entry): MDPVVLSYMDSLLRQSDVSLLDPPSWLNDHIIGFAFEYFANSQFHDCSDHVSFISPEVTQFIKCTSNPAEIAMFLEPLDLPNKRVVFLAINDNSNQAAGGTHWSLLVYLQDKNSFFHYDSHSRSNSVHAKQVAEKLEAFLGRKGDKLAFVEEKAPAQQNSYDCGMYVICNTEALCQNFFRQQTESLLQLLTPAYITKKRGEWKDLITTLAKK

[11] = biological target: T5, Sentrin-specific protease 7 (Homo sapiens, UniProt Q9BQF6); test: inhibition of human SENP7 cleavage activity – biochemical, luminescence, set 2, SAR follow-up (AID 588600); assay type: functional
T5 sequence (Q9BQF6 whole entry): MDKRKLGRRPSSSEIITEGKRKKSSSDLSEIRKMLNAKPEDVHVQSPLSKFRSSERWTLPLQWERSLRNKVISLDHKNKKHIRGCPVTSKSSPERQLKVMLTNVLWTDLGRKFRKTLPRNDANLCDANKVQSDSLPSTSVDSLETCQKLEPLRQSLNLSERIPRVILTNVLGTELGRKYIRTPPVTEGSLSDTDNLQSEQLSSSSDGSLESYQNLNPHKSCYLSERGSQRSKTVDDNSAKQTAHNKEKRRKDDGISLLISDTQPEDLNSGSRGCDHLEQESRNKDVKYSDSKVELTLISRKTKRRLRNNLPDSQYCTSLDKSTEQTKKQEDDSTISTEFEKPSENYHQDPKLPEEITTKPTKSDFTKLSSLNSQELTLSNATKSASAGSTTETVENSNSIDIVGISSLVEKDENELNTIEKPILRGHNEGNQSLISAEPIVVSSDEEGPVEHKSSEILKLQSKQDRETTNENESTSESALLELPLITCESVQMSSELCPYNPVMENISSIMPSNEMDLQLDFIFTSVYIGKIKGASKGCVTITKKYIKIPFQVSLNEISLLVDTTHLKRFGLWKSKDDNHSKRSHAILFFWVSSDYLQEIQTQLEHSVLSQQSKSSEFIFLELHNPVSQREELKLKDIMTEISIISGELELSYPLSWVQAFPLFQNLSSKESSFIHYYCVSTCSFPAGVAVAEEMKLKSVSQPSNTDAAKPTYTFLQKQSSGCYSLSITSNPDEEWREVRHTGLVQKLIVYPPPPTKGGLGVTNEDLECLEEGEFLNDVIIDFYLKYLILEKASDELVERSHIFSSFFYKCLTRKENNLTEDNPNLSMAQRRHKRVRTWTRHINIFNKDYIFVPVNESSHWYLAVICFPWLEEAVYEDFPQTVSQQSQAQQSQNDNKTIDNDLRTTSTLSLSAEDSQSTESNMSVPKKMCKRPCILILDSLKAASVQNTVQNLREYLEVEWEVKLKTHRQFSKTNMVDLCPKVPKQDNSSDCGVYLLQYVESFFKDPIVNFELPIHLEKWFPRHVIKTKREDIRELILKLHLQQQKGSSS

[12] = biological target: T6, Sentrin-specific protease 6 (Homo sapiens, UniProt Q9GZR1); test: SAR Analysis of small molecule inhibitors of Sentrin-specific protease 6 (SENP6) using a Luminescent assay. [Related pubchem assays (depositor defined):AID2582, AID2599]; assay type: functional
T6 sequence (Q9GZR1 whole entry): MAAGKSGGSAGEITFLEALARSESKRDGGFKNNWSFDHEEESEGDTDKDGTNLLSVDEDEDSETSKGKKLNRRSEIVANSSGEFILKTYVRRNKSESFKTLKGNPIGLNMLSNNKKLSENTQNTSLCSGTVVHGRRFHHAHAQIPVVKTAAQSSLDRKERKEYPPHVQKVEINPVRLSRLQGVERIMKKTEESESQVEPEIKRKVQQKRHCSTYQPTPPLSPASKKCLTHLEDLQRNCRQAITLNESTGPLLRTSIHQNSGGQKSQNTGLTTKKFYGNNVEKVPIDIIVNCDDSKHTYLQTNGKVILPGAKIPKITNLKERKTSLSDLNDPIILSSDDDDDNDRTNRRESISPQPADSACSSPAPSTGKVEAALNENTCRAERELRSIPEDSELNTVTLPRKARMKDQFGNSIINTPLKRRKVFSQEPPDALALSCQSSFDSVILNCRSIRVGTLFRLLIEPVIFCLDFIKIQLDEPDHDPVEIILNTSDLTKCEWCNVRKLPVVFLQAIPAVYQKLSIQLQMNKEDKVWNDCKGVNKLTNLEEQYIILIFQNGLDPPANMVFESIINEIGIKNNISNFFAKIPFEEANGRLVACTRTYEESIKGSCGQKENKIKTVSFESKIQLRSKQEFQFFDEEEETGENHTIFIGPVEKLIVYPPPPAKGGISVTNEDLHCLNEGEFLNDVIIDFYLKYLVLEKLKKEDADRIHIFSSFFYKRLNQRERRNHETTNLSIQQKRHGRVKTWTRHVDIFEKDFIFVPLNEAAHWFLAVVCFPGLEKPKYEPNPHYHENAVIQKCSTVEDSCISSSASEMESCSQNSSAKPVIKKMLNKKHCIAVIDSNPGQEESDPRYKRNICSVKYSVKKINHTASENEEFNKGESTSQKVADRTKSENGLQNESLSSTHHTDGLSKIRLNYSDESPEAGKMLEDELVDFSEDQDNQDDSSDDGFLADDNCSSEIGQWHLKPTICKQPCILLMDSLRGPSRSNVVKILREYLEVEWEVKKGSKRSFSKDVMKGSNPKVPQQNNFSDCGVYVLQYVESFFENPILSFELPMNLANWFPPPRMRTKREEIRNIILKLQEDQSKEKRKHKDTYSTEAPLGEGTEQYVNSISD

[13] = biological target: T6, Sentrin-specific protease 6; test: inhibition of human SENP6 catalytic domain – biochemical, luminescence, set 2, SAR follow-up (AID 588598); assay type: functional
[14] = biological target: T5, Sentrin-specific protease 7; test: inhibition of human SENP7 cleavage activity – biochemical, luminescence, SAR follow-up (AID 504497); assay type: functional
[15] = biological target: T4, Sentrin-specific protease 8; test: inhibition of human SENP8 cleavage activity – biochemical, luminescence, SAR follow-up (AID 504501); assay type: functional
[16] = biological target: T3, Caspase-3; test: SAR Analysis of small molecule inhibitors of Sentrin-specific proteases (SENPs) using a Caspase-3 Selectivity assay. [Related pubchem assays (depositor defined):AID2540, AID2599, AID434973, AID489001]; assay type: functional
[17] = biological target: T7, Protein skinhead-1 (Caenorhabditis elegans, UniProt P34707); assay type: functional
T7 sequence (P34707 whole entry): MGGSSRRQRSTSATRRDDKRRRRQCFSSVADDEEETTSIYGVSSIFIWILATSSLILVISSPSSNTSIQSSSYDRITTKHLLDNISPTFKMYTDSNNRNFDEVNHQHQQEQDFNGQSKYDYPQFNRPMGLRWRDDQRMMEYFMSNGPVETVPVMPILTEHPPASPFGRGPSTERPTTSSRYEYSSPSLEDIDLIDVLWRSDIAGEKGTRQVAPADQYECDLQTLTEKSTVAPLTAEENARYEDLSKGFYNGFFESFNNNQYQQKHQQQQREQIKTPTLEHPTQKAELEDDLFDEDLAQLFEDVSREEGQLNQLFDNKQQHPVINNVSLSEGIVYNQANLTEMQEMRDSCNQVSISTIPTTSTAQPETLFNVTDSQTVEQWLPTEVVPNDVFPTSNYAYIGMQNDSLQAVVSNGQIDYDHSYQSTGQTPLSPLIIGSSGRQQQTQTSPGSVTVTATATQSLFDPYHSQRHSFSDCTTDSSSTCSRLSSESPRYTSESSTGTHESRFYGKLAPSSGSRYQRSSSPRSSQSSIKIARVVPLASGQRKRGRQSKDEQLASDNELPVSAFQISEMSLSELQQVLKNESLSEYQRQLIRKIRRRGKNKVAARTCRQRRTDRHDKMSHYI

[18] = biological target: CAAX prenyl protease 2 (Saccharomyces cerevisiae S288c, UniProt Q03530); test: inhibition of Rce1p peptide cleavage – biochemical, plate reader, dry powder retest, dose response (AID 588851)
CAAX prenyl protease 2, sequence (Q03530 whole entry): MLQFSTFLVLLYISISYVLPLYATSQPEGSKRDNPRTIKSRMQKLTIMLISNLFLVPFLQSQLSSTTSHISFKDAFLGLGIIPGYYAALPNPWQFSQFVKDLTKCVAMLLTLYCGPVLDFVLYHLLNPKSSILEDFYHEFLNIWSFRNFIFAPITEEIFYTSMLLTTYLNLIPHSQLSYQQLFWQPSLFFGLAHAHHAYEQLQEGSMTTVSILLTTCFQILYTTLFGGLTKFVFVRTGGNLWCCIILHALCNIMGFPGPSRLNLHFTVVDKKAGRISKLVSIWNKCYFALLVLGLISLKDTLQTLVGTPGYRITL

[19] = biological target: Cytochrome P450 2D6 (Homo sapiens, UniProt P10635);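 further: CYP2D6 member of a cytochrome P450 panel assay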
Cytochrome P450 2D6, sequence (P10635 whole entry): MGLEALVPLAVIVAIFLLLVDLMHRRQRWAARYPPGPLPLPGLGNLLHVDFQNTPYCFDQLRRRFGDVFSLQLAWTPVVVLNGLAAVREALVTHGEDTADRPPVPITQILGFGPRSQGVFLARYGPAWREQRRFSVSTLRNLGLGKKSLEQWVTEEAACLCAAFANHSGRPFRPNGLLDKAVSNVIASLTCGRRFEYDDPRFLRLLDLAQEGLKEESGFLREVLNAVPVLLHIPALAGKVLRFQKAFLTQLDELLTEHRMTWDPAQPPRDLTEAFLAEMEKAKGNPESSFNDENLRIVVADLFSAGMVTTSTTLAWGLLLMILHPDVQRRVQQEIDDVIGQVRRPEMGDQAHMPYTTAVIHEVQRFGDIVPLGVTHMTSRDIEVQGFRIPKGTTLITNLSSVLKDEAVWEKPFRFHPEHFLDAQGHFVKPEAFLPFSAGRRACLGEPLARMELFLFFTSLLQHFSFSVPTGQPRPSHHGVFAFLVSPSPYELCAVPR

Cc1nn(C)c(C)c1/N=C/c1c(O)ccc2ccccc12
IC50 [1]: 31.2 µM (inactive) | IC50 [2]: > 50 µM (inactive) | IC50 [3]: 3.76 µM (active) | IC50 [4]: > 66.2 µM (inactive) | IC50 [5]: > 88.8 µM (inactive) | IC50 [6]: > 49.8 µM (inactive)

CC1CCN(C(=O)Cn2c3ccccc3c3nc4n(c(=O)c32)CCCS4)CC1
AC50 [7]: 122 µM (active) | AC50 [8]: > 260 µM (inactive)

C(=C\c1nc(-c2cccnc2)no1)/c1ccccc1
IC50 [9]: 9.23 µM (active) | IC50 [10]: 9.69 µM (active) | IC50 [11]: 8.26 µM (active) | IC50 [12]: 21 µM (active) | IC50 [13]: 8.23 µM (active) | IC50 [14]: 5.3 µM (active) | IC50 [15]: 23 µM (active) | IC50 [16]: 6.2 µM (active) | IC50 [17]: 49 µM (active)

Cc1ccc(NC(=O)CCc2ccc(S(=O)(=O)NC3CCCCC3)cc2)cc1
AC50 [18]: 11 µM (active) | AC50 [19]: 11.2 µM (inconclusive)
